Test results reported in the supplement of paper PMC10733146.

Legend:
Test in all cases: viability relative to DMSO control (fraction); higher = less drug effect (more viable cells)
Conditions in all cases: 48 h
[1] = system: primary AML patient cells (S055)
Procedure, shortened: (§1)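 Primary mononuclear tumour cells (Ficoll-isolated from blood or bone marrow, or processed lymph node; fresh or cryopreserved) were plated at 4 × 10^4 cells per well in 384-well plates with pre-plated compounds at five concentrations, one well each. Medium was RPMI-1640 with penicillin/streptomycin, L-glutamine and human serum, at 37 °C and 5% CO2 for 48 h. Viability was read as CellTiter-Glo luminescence relative to the median of 16 inner DMSO wells.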

[2] = system: primary AML patient cells (S037)
Procedure, shortened: as §1

[3] = system: primary AML patient cells (S089)
Procedure, shortened: as §1

[4] = system: primary AML patient cells (S019)
Procedure, shortened: as §1

[5] = system: primary AML patient cells (S081)
Procedure, shortened: as §1

[6] = system: primary T-PLL patient cells (S008)
Procedure, shortened: as §1

[7] = system: primary ALL patient cells (S048)
Procedure, shortened: as §1

[8] = system: primary MCL patient cells (S068)
Procedure, shortened: as §1

[9] = system: primary FL patient cells (S022)
Procedure, shortened: as §1

[10] = system: primary AML patient cells (S025)
Procedure, shortened: as §1

[11] = system: primary AML patient cells (S002)
Procedure, shortened: as §1

[12] = system: primary AML patient cells (S091)
Procedure, shortened: as §1

[13] = system: primary AML patient cells (S011)
Procedure, shortened: as §1

[14] = system: primary AML patient cells (S021)
Procedure, shortened: as §1

Nc1ncn([C@@H]2O[C@H](CO)[C@@H](O)[C@H]2O)c(=O)n1 [Azacytidine (Vidaza)]
viability ([1]; 0.032 µM): 1.04
viability ([1]; 0.16 µM): 1.05
viability ([1]; 0.8 µM): 0.806
viability ([1]; 4 µM): 0.233
viability ([1]; 20 µM): 0.0906
viability ([2]; 0.032 µM): 1
viability ([2]; 0.16 µM): 1.01
viability ([2]; 0.8 µM): 0.901
viability ([2]; 4 µM): 0.7
viability ([2]; 20 µM): 0.595
viability ([3]; 0.032 µM): 0.841
viability ([3]; 0.16 µM): 1.05
viability ([3]; 0.8 µM): 0.67
viability ([3]; 4 µM): 0.0823
viability ([3]; 20 µM): 0.0388
viability ([4]; 0.032 µM): 0.935
viability ([4]; 0.16 µM): 1.34
viability ([4]; 0.8 µM): 0.986
viability ([4]; 4 µM): 0.522
viability ([4]; 20 µM): 0.308
viability ([5]; 0.032 µM): 0.955
viability ([5]; 0.16 µM): 1.08
viability ([5]; 0.8 µM): 1.04
viability ([5]; 4 µM): 0.951
viability ([5]; 20 µM): 0.832
viability ([6]; 0.032 µM): 0.965
viability ([6]; 0.16 µM): 1.02
viability ([6]; 0.8 µM): 0.988
viability ([6]; 4 µM): 0.704
viability ([6]; 20 µM): 0.289
viability ([7]; 0.032 µM): 0.926
viability ([7]; 0.16 µM): 0.989
viability ([7]; 0.8 µM): 0.695
viability ([7]; 4 µM): 0.239
viability ([7]; 20 µM): 0.102
viability ([8]; 0.032 µM): 0.969
viability ([8]; 0.16 µM): 1.04
viability ([8]; 0.8 µM): 0.798
viability ([8]; 4 µM): 0.325
viability ([8]; 20 µM): 0.232
viability ([9]; 0.032 µM): 1.03
viability ([9]; 0.16 µM): 1
viability ([9]; 0.8 µM): 1.01
viability ([9]; 4 µM): 0.949
viability ([9]; 20 µM): 0.624
viability ([10]; 0.032 µM): 1.07
viability ([10]; 0.16 µM): 0.961
viability ([10]; 0.8 µM): 0.757
viability ([10]; 4 µM): 0.285
viability ([10]; 20 µM): 0.0947
viability ([11]; 0.032 µM): 0.946
viability ([11]; 0.16 µM): 0.979
viability ([11]; 0.8 µM): 0.667
viability ([11]; 4 µM): 0.31
viability ([11]; 20 µM): 0.229
viability ([12]; 0.032 µM): 0.933
viability ([12]; 0.16 µM): 1.02
viability ([12]; 0.8 µM): 0.892
viability ([12]; 4 µM): 0.788
viability ([12]; 20 µM): 0.621
viability ([13]; 0.032 µM): 1.05
viability ([13]; 0.16 µM): 1.29
viability ([13]; 0.8 µM): 0.811
viability ([13]; 4 µM): 0.32
viability ([13]; 20 µM): 0.134
viability ([14]; 0.032 µM): 0.982
viability ([14]; 0.16 µM): 1.17
viability ([14]; 0.8 µM): 0.936
viability ([14]; 4 µM): 0.501
viability ([14]; 20 µM): 0.31
